Here are results for 2 compounds from ChEMBL document CHEMBL1772976, “Bathymodiolamides A and B, ceramide derivatives from a deep-sea hydrothermal vent invertebrate mussel, Bathymodiolus thermophilus” (J Nat Prod, 2011).

One assay deals with MCF7. Put plainly: Cytotoxicity against human MCF7 cells after 48 hrs by MTT assay. It is filed as functional, cell-based. The settings on record: MCF7, 48 h.
In another assay the test system is HeLa. Put plainly: Cytotoxicity against human HeLa cells after 48 hrs by MTT assay. It is filed as functional, cell-based.

Consider `CCC/C=C\C/C=C\C/C=C\CCCCC(=O)O[C@@H](COC(=O)CCCCCCCCCCCCCCC)[C@H](O)[C@H](CO)NC(=O)CCCCCCCCCCC` [BATHYMODIOLAMIDE A], for which the concentration for half-maximal inhibition (IC50) (as a rule, the concentration at which inhibition is half-maximal) with MCF7 was 100 nM; with HeLa it was 400 nM.
For `CCC/C=C\C/C=C\CCC(=O)O[C@@H](COC(=O)CCCCCCCCCCCCC)[C@H](O)[C@H](CO)NC(=O)CCCCCCCCCCC` [BATHYMODIOLAMIDE B], the IC50 came out at 200 nM in the assay on MCF7 and 500 nM with HeLa.
